Test results from patent US20030021772A1 (priority 2001, published 2003).

What was measured:
[1] = tested on: effects of jet lag and sleep deprivation on human beings; assay: ANAM Running Memory Test (vigilance, working memory) after overnight flight; format: in vivo; conditions: sublingual NADH 20 mg
Method: (§1) The efficacy of a stabilized, sublingual form of reduced nicotinamide adenine dinucleotide (NADH, available commercially under the name ENADA® from Menuco Corp.) as a treatment for the effects of jet lag and sleep deprivation on human beings was examined. Healthy individuals were treated with NADH on the day following an overnight flight across North America, and the effects of NADH on their cognitive functioning were monitored. Although the sublingual form of NADH was used in these examples, any of the aforementioned forms of NADH could have been employed.
(§2) The subjects in these examples were volunteers between 35 and 55 years of age, and were in good general physical health. […] In addition, subjects were required to have a normal day/night sleep schedule in their home time zone, and to have an Epworth Sleepiness Scale rating >8 at baseline (“baseline” being the testing in San Diego on the day of the flight) (see E. Hoddes et al., Quantification of Sleepiness: A New Approach, Psychophysiology (1973), 10(4):431-6). […]
(§3) Subjects arrived at the San Diego, Calif. test site at 1200 hours on the day of the flight. […] Subjects were transported to the San Diego Airport and flown to Phoenix, Ariz. where they were shuttled to a conference room at a nearby hotel, provided dinner, and readministered the battery of tests at approximately 2030 hours. […]

[2] = tested on: effects of jet lag and sleep deprivation on human beings; assay: Kay Continuous Performance Test (KCPT), sustained attention and vigilance; format: in vivo; conditions: sublingual NADH 20 mg
Method: as §1
The subjects in these examples were volunteers between 35 and 55 years of age, and were in good general physical health. At a screening visit, subjects were urine tested to screen for the use of illicit drugs and pregnancy. […] In addition, subjects were required to have a normal day/night sleep schedule in their home time zone, and to have an Epworth Sleepiness Scale rating >8 at baseline (“baseline” being the testing in San Diego on the day of the flight) (see E. Hoddes et al., Quantification of Sleepiness: A New Approach, Psychophysiology (1973), 10(4):431-6). […]
as §3
(§4) Sublingual NADH 20 mg (4 tablets of sublingual ENADAlert™ 5 mg) or an equal number of identical placebo tablets were administered by study site personnel to the subjects upon their arrival at the Washington test site. At the test site, subjects' activities were carefully monitored to avoid dehydration, exposure to daylight (subjects were kept indoors) and hunger (they were provided breakfast and lunch, which all subjects ate). […]

[3] = tested on: effects of jet lag and sleep deprivation on human beings; assay: CogScreen Shifting Attention Test: Instruction Condition (working memory); format: in vivo; conditions: sublingual NADH 20 mg
Method: as §1, §2, §3

[4] = tested on: effects of jet lag and sleep deprivation on human beings; assay: ANAM Math Test (working memory, math reasoning); format: in vivo; conditions: sublingual NADH 20 mg
Method: as §1, §2, §3

[5] = tested on: effects of jet lag and sleep deprivation on human beings; assay: CCAB Mark Numbers Test (divided attention); format: in vivo; conditions: sublingual NADH 20 mg
Method: as §1, §2, §3

[6] = tested on: effects of jet lag and sleep deprivation on human beings; assay: CogScreen Visual Sequence Comparison Test (visual perceptual speed and accuracy); format: in vivo; conditions: sublingual NADH 20 mg; PM test vs baseline; placebo 1.4; P=0.026
Method: as §1, §2, §3

[7] = tested on: effects of jet lag and sleep deprivation on human beings; assay: CogScreen Matching to Sample Test; format: in vivo; conditions: sublingual NADH 20 mg; baseline to PM; placebo 1.0; P=0.078
Method: as §1, §2, §3

[8] = tested on: effects of jet lag and sleep deprivation on human beings; assay: CogScreen Dual Task Test: Tracking Alone (psychomotor functioning); format: in vivo; conditions: sublingual NADH 20 mg, 31% at baseline
Method: as §1, §2, §3

[9] = tested on: effects of jet lag and sleep deprivation on human beings; assay: Stanford Sleepiness Scale self-report; format: in vivo; conditions: sublingual NADH 20 mg
Method: as §1
The subjects in these examples were volunteers between 35 and 55 years of age, and were in good general physical health. At a screening visit, subjects were urine tested to screen for the use of illicit drugs and pregnancy. Cognitive screening with the Trail Making Test and Symbol Digit Modalities Test (see M. D. Lezak, Neuropsychological Assessment, 3rd ed., Oxford University Press (1995)) was used to exclude subjects with cognitive function test scores>1 SD below the mean for their age. Subjects were required to be gainfully employed, to have completed 14 years of formal education, and to have none of the following conditions: history of substance abuse, obesity (body mass index>30 kg/m^2), air sickness, pregnancy, nicotine use (within 6-months), mental health disorder (within 1 year), or sleep disorder. In addition, subjects were required to have a normal day/night sleep schedule in their home time zone, and to have an Epworth Sleepiness Scale rating >8 at baseline (“baseline” being the testing in San Diego on the day of the flight) (see E. Hoddes et al., Quantification of Sleepiness: A New Approach, Psychophysiology (1973), 10(4):431-6). Subjects were not permitted to be taking antidepressant medications, CNS stimulants, neuroleptics, Ginseng, Gingko Biloba, melatonin, phosphatylcholine, -acetyl carnatene, or other medications/nutritional supplements reported to enhance cognitive functioning within 90 days of the study. During the study, subjects were not permitted to use caffeine, alcohol or to take any prescription or over-the-counter medications known to enhance or depress CNS functioning.
Subjects arrived at the San Diego, Calif. test site at 1200 hours on the day of the flight. The study protocol was reviewed with the subjects and they were then each issued a laptop computer (IBM Thinkpad Model 760) and familiarized with the tests and measures to be used in the study. At approximately 1500 hours subjects were administered the entire battery of tests to establish their baseline performance (“baseline”). Subjects also received training in the method for taking the sublingual tablets. Subjects were transported to the San Diego Airport and flown to Phoenix, Ariz. where they were shuttled to a conference room at a nearby hotel, provided dinner, and readministered the battery of tests at approximately 2030 hours. Subjects were shuttled back to the airport and boarded a flight to Baltimore, Md. at 2230 hours. Thirty minutes into the flight the subjects were instructed to complete a subset of the battery of tests. Subjects were permitted to sleep after completing the tests. The duration of the flight from Phoenix to Baltimore is approximately 4 hours. Furthermore, there is a 3-hour time difference between San Diego and Baltimore. The local time in Baltimore upon arrival was approximately 0600 hours. After breakfast, subjects were shuttled to the Washington, D.C. test site where they arrived at approximately 0800 hours.
as §4

[10] = tested on: effects of jet lag and sleep deprivation on human beings; assay: Walter Reed Mood Scale self-report; format: in vivo; conditions: sublingual NADH 20 mg
Method: as §1, §2, §3

human beings = assay: Adverse effects (headaches) during the jet lag study; format: in vivo; conditions: sublingual NADH 20 mg
Method: as §1, §2, §3

Stability at acidic pH = format: physicochemical; conditions: pHs below 7, as in the human stomach
Text: Therefore, when used in oral form, these substances must be coated with an acid-stable protective film so that they can survive the stomach environment for subsequent absorption by the intestine. Suitable acid-stable coatings are known in the art and can be applied by a conventional coating process after the active ingredients are formed into a tablet or capsule. Examples of suitable coatings are: cellulose acetate phthalate; polyvinylacetate phthalate; hydroxyl-propyl-methyl cellulose phthalate; methacryllic acid copolymers; fat-wax; shellac; zein; aqua-coating; and surerelease. Another possibility for the coating is a solution of a phthalate and a lack dry substance in isopropanol. An example of a suitable lack dry substance is sold under the name […]™ by Rohm Pharma. Alternatively, a protein coating in an aqueous medium may be applied. However, a sugar-coating should not be used because it will destabilize NADH.

## NC(=O)C1=CN([C@@H]2O[C@H](COP(=O)(O)OP(=O)(O)OC[C@H]3O[C@@H](n4cnc5c(N)ncnc54)[C@H](O)[C@@H]3O)[C@@H](O)[C@H]2O)C=CC1 [NADH, reduced nicotinamide adenine dinucleotide]
[1]; afternoon (PM) test, placebo 91%
  mean accuracy on the Running Memory Test: 96%
[1]; stable across all three sessions (baseline, AM, PM), 14 subjects, Group x Session P=0.036, placebo dropped 95% to 91%
  Running Memory accuracy: approximately 96%
[2]; AM test, 90 min after dosing, placebo 44%
  subjects with normal baseline performance who made two or more errors on KCPT: 36%
[2]; PM test, placebo 63%, P<0.08
  subjects who had resumed a normal level of KCPT performance: 86%
[2]; afternoon, placebo 37%
  subjects with omission errors on the KCPT: 14%
[3]; AM test vs baseline, placebo 6.8, Group x Session P<0.05
  more problems correctly completed per minute vs. baseline (Shifting Attention Test throughput): 13.2 problems per minute
[3]; AM test, 92.5% at baseline, placebo 93% to 91%
  Shifting Attention Test: Instruction Condition accuracy: 95%
[4]; AM test, placebo 6%, Group x Session P<0.07
  ANAM Math Test throughput improvement relative to baseline: 15%
[4]; PM test, placebo 4%
  ANAM Math Test throughput improvement relative to baseline: 11%
[5]; PM test, placebo 19.2 points, P=0.011
  increase of Mark Numbers Test Total Score: 77.5 points
[5]; baseline to AM, placebo increased by 0.44 seconds, P=0.016
  decrease of secondary task reaction time, Mark Numbers Test: 0.15 s
[6]
  more items correctly completed per minute vs baseline (Visual Sequence Comparison throughput): 5.4 items per minute
[7]
  more correct responses per minute (Matching to Sample throughput): 4.9 correct responses per minute
[8]; AM test, placebo 41%
  subjects with tracking failures: 33%
[8]; PM test, placebo 29%, P<0.09
  subjects with tracking failures: 11%
[9]; AM test session, placebo 62.5%
  subjects reporting an increase in sleepiness compared to baseline: 57.1%
[9]; AM test, 82% at baseline, placebo identical
  subjects with Stanford Sleepiness Scale rating of 1 or 2: 35%
[9]; AM test, placebo identical
  subjects with Stanford Sleepiness Scale rating of 3 or more: 65%
[9]; PM test session, placebo 25%
  subjects no longer reporting an increase in sleepiness relative to baseline: 57.7%
[9]; PM test, 17 subjects, placebo four, p=0.07
  number of subjects with Stanford Sleepiness Scale rating of 1 or 2: eight
[9]; PM test, 17 subjects, placebo thirteen
  number of subjects with Stanford Sleepiness Scale rating of 3 or more: nine
[9]; afternoon test, with 11 additional subjects (n=46), placebo 18%, P<0.02
  subjects reporting no sleepiness: 48%
[10]
  self-reported fatigue and activity level, difference between NADH and placebo groups: no significant differences
Human beings
  adverse effects attributable to treatment: no adverse effects
Stability at acidic pH
  stability at pHs below 7: very unstable
